Results as given in patent US20040076974A1, “Liver necrosis predictive genes” (priority 2002, published 2004).
“And” between values parts separate entries of the source, which are not always exact repeats. Equal values may be shown once.

Tested on: toxicologically relevant rat genes (rat CT array)
Conditions: 24 h; dose 200; listed as BRB

## Brc1ccccc1 [bromobenzene]
  3-hydroxyisobutyrate dehydrogenase expression (treatment/control): 0.8751 and 1.339 and 0.6927
  14-3-3 zeta expression (treatment/control): 1.437 and 1.592
  25-DX expression (treatment/control): 1.969 and 1.763 and 1.86
  60S ribosomal protein L6 expression (treatment/control): 2.093 and 1.63 and 1.941
  Alpha-2-macroglobulin expression (treatment/control): 0.5548 and 0.5467 and 0.459
  Apolipoprotein CIII expression (treatment/control): 0.8126 and 0.7007
  Argininosuccinate lyase expression (treatment/control): 2.651 and 1.764 and 2.145
  Bax (alpha) expression (treatment/control): 1.536 and 1.414 and 1.327
  Beta-actin expression (treatment/control): 2.486 and 1.816 and 2.608
  Beta-tubulin, class I expression (treatment/control): 2.668 and 1.782 and 2.339
  Carbonyl reductase expression (treatment/control): 1.678 and 1.035 and 1.375
  Cathepsin L, sequence 2 expression (treatment/control): 2.896 and 1.549 and 2.344
  Cofilin expression (treatment/control): 2.923 and 2.064 and 2.935
  DNA polymerase beta expression (treatment/control): 1.369 and 1.206 and 1.307
  Dynamin-1 (D100) expression (treatment/control): 0.8053 and 0.7635 and 0.8226
  Elongation factor-1 alpha expression (treatment/control): 2.054 and 1.728 and 1.8
  Endogenous retroviral sequence, 5′ and 3′ LTR expression (treatment/control): 1.854 and 1.585 and 2.582
  Enolase alpha expression (treatment/control): 2.419 and 1.535 and 1.712
  Epidermal growth factor expression (treatment/control): 0.7593 and 0.7117 and 0.804
  Fas antigen expression (treatment/control): 0.9199 and 0.9142 and 1.12
  Glucose-regulated protein 78 expression (treatment/control): 1.405 and 1.625 and 1.635
  Hepatic lipase expression (treatment/control): 0.569 and 0.6299 and 0.3937
  ID-1 expression (treatment/control): 1.9 and 1.248 and 1.715
  Integrin beta1 expression (treatment/control): 1.457 and 0.9085 and 1.427
  MAP kinase kinase expression (treatment/control): 1.27 and 1.166 and 1.092
  Matrin F/G expression (treatment/control): 0.6546 and 0.8987 and 0.4635
  Matrix metalloproteinase-1 expression (treatment/control): 1.585 and 1.263 and 1.628
  Melanoma-associated antigen ME491 expression (treatment/control): 1.388 and 0.9209 and 1.67
  Monocyte chemotactic protein receptor (CCR2) expression (treatment/control): 1.124 and 0.9935 and 1.064
  Multidrug resistant protein-2 expression (treatment/control): 1.861 and 1.261 and 1.657
  Nucleoside diphosphate kinase beta isoform expression (treatment/control): 1.862 and 1.504 and 1.541
  Organic anion transporter 3 expression (treatment/control): 0.5569 and 0.821 and 0.6551
  Organic cation transporter 3 expression (treatment/control): 1.241 and 0.9547 and 1.365
  Ornithine decarboxylase expression (treatment/control): 2.762 and 1.488 and 2.288
  Phase-1 RCT-12 expression (treatment/control): 1.003
  Phase-1 RCT-15 expression (treatment/control): 2.352 and 2.155
  Phase-1 RCT-36 expression (treatment/control): 0.7233 and 0.7082 and 0.8303
  Phase-1 RCT-37 expression (treatment/control): 0.9672
  Phase-1 RCT-65 expression (treatment/control): 1.706 and 1.856
  Phase-1 RCT-68 expression (treatment/control): 1.972 and 1.887
  Phase-1 RCT-72 expression (treatment/control): 1.442
  Phase-1 RCT-78 expression (treatment/control): 0.6352 and 0.7712 and 0.5322
  Phase-1 RCT-83 expression (treatment/control): 0.6204 and 0.729
  Phase-1 RCT-88 expression (treatment/control): 0.7128 and 0.75 and 0.8397
  Phase-1 RCT-109 expression (treatment/control): 1.895 and 1.651 and 2.226
  Phase-1 RCT-117 expression (treatment/control): 0.6683 and 0.7437
  Phase-1 RCT-123 expression (treatment/control): 0.7152 and 0.6828 and 0.8648
  Phase-1 RCT-137 expression (treatment/control): 1.102 and 0.6023
  Phase-1 RCT-152 expression (treatment/control): 1.957 and 1.542 and 2.109
  Phase-1 RCT-154 expression (treatment/control): 0.9986 and 1.304
  Phase-1 RCT-168 expression (treatment/control): 0.6821 and 0.7986 and 0.5665
  Phase-1 RCT-180 expression (treatment/control): 1.503
  Phase-1 RCT-181 expression (treatment/control): 0.8932 and 0.9997
  Phase-1 RCT-182 expression (treatment/control): 1.301 and 0.688
  Phase-1 RCT-189 expression (treatment/control): 0.5887 and 0.552
  Phase-1 RCT-191 expression (treatment/control): 1.728 and 1.302 and 2.139
  Phase-1 RCT-192 expression (treatment/control): 1.596
  Phase-1 RCT-213 expression (treatment/control): 1.467
  Phase-1 RCT-214 expression (treatment/control): 0.4191 and 0.7327 and 0.3835
  Phase-1 RCT-239 expression (treatment/control): 0.6828
  Phase-1 RCT-258 expression (treatment/control): 0.9631 and 1.542
  Phase-1 RCT-271 expression (treatment/control): 0.5825 and 0.5279
  Phase-1 RCT-291 expression (treatment/control): 1.199 and 0.6861
  Phase-1 RCT-295 expression (treatment/control): 2.141 and 1.945 and 1.916
  Proliferating cell nuclear antigen gene expression (treatment/control): 1.304 and 0.7642 and 1.223
  Pyruvate kinase, muscle expression (treatment/control): 1.814 and 1.17 and 1.778
  Ref-1 expression (treatment/control): 2.201 and 1.238 and 2.06
